Data published in US6020341A, “Enediyne quinone imines and methods of preparation and use thereof” (priority 1997, dated 2000).
Like-named read-outs stand apart in the source and are kept apart here.

How the values were obtained:
CCRF-CEM/VM-1 cells = assay: Cytotoxicity, CCRF-CEM/VM-1; type: cell-based, human; settings: for IC50 / IC90: Homo sapiens, CCRF-CEM; for IC90: read-out: Cytotoxic Concentration IC90
From the text: (§1) | cell growth by 50% (IC50) in μM.

CCRF-CEM/VBL cells = assay: Cytotoxicity, CCRF-CEM resistant to vinblastine; type: cell-based, human; settings: for IC50 / IC90: Homo sapiens, CCRF-CEM; for IC90: read-out: Cytotoxic Concentration IC90
From the text: as §1

[1] = system: Human acute lymphoblastic T cells (CCRF-CEM); assay: Cytotoxicity, CCRF-CEM; type: cell-based; settings: for IC50 / IC90: Homo sapiens, CCRF-CEM; for IC90: read-out: Cytotoxic Concentration IC90
From the text: as §1

[2] = system: Human promyelocytic leukemic cell (HL-60); assay: Cytotoxicity, HL-60; type: cell-based
From the text: as §1

[3] = system: Chinese hamster lung cells (DC-3F); assay: Cytotoxicity, DC-3F; type: cell-based; settings: for IC50 / IC90: Cricetulus griseus, DC3F; for IC90: read-out: Cytotoxic Concentration IC90
From the text: as §1

[4] = system: Chinese hamster lung cells resistant to actinomycin D (DC-3F/ADII); assay: Cytotoxicity, DC-3F/ADII; type: cell-based; settings: for IC50 / IC90: Cricetulus griseus, DC3F; for IC90: read-out: Cytotoxic Concentration IC90
From the text: as §1

[5] = system: Human breast adenocarcinoma cells (SK-Br-3); assay: Cytotoxicity, SK-Br-3; type: cell-based
From the text: as §1

MT2 cells = assay: Cytotoxicity, MT2; type: cell-based; settings: Table 15, MT2
[6] = system: Human testicular teratocarcinoma cells (833K); assay: Cytotoxicity, 833K; type: cell-based
From the text: as §1

[7] = Table 3, CCRF-CEM/VM-1, EQI-6 = (1)
[8] = Table 14, vinblastine-resistant (VLB100)
[9] = Table 3, CCRF-CEM/VBL, EQI-6 = (1)
[10] = Table 4, DC-3F/ADII, EQI-6 = (1)

Compound: COc1cc(NS(C)(=O)=O)ccc1Nc1c2ccccc2nc2ccccc12 [m-AMSA, 4'-(9-acridinylamino)methanesulfon-m-anisidide]
- IC50 (CCRF-CEM/VM-1 cells; Table 2, CCRF/VM-1 (MDR/TopoII), read-out: concentration required to inhibit cell growth by 50% (IC50)): 1710 nM
- IC50 (CCRF-CEM/VM-1 cells; Table 3, CCRF-CEM/VM-1, read-out: Cytotoxic Concentration IC50): 1710 nM
- IC90 (CCRF-CEM/VM-1 cells; Table 3, CCRF-CEM/VM-1): 3570 nM
- IC50 (CCRF-CEM/VM-1 cells; Table 14, CCRF-CEM/VM-1, read-out: Cytotoxic Concentration IC50): 4050 nM
- IC90 (CCRF-CEM/VM-1 cells; Table 14, CCRF-CEM/VM-1): 11000 nM
- Cytotoxic Concentration IC95 (CCRF-CEM/VM-1 cells; Table 3, CCRF-CEM/VM-1): 4586 nM
- ratio of IC50 to EQI-6 (in parentheses) (CCRF-CEM/VM-1 cells; [7]): 902.1 ×
- ratio of IC90 to EQI-6 (in parentheses) (CCRF-CEM/VM-1 cells; [7]): 401.3 ×
- ratio of IC95 to EQI-6 (in parentheses) (CCRF-CEM/VM-1 cells; [7]): 303 ×
- Cytotoxic Concentration IC95 (CCRF-CEM/VM-1 cells; Table 14, CCRF-CEM/VM-1): 15391 nM
- IC50 (CCRF-CEM/VBL cells; Table 2, CCRF/VBL (MDR/pg-p), read-out: concentration required to inhibit cell growth by 50% (IC50)): 565 nM
- IC50 (CCRF-CEM/VBL cells; Table 3, CCRF-CEM/VBL, read-out: Cytotoxic Concentration IC50): 565 nM
- IC90 (CCRF-CEM/VBL cells; Table 3, CCRF-CEM/VBL): 2460 nM
- IC50 (CCRF-CEM/VBL cells; Table 14, vinblastine-resistant (VLB100), read-out: Cytotoxic Concentration IC50): 964 nM
- IC90 (CCRF-CEM/VBL cells; [8]): 7230 nM
- Cytotoxic Concentration IC95 (CCRF-CEM/VBL cells; Table 3, CCRF-CEM/VBL): 4045 nM
- ratio of IC50 to EQI-6 (in parentheses) (CCRF-CEM/VBL cells; [9]): 298.9 ×
- ratio of IC90 to EQI-6 (in parentheses) (CCRF-CEM/VBL cells; [9]): 396 ×
- ratio of IC95 to EQI-6 (in parentheses) (CCRF-CEM/VBL cells; [9]): 434.9 ×
- Cytotoxic Concentration IC95 (CCRF-CEM/VBL cells; [8]): 14353 nM
- IC50 ([1]; Table 1, CCRF-CEM, read-out: IC50): 199 nM
- IC50 ([1]; Table 2, CCRF/CEM, read-out: concentration required to inhibit cell growth by 50% (IC50)): 199 nM
- IC50 ([1]; Table 3, CCRF-CEM, read-out: Cytotoxic Concentration IC50): 199 nM
- IC90 ([1]; Table 3, CCRF-CEM): 1540 nM
- IC50 ([1]; Table 14, CCRF-CEM, read-out: Cytotoxic Concentration IC50): 129 nM
- IC90 ([1]; Table 14, CCRF-CEM): 755 nM
- Cytotoxic Concentration IC95 ([1]; Table 3, CCRF-CEM): 3101 nM
- ratio of IC50 to EQI-6 (in parentheses) ([1]; Table 3, CCRF-CEM, EQI-6 = (1)): 398 ×
- ratio of IC90 to EQI-6 (in parentheses) ([1]; Table 3, CCRF-CEM, EQI-6 = (1)): 702 ×
- ratio of IC95 to EQI-6 (in parentheses) ([1]; Table 3, CCRF-CEM, EQI-6 = (1)): 838 ×
- Cytotoxic Concentration IC95 ([1]; Table 14, CCRF-CEM): 1378 nM
- IC50 ([2]; Homo sapiens, HL-60, Table 1, HL-60, read-out: IC50): 38.8 nM
- IC50 ([2]; Homo sapiens, HL-60, Table 2, HL60, read-out: concentration required to inhibit cell growth by 50% (IC50)): 39 nM
- IC50 ([2]; Homo sapiens, HL-60, Table 3, HL-60, read-out: Cytotoxic Concentration IC50): 38.8 nM
- IC90 ([2]; Homo sapiens, HL-60, Table 3, HL-60, read-out: Cytotoxic Concentration IC90): 176 nM
- Cytotoxic Concentration IC95 ([2]; Table 3, HL-60): 294 nM
- ratio of IC50 to EQI-6 (in parentheses) ([2]; Table 3, HL-60, EQI-6 = (1)): 66.9 ×
- ratio of IC90 to EQI-6 (in parentheses) ([2]; Table 3, HL-60, EQI-6 = (1)): 67.7 ×
- ratio of IC95 to EQI-6 (in parentheses) ([2]; Table 3, HL-60, EQI-6 = (1)): 66.8 ×
- IC50 ([3]; Table 2, DC-3F, read-out: concentration required to inhibit cell growth by 50% (IC50)): 8.8 nM
- IC50 ([3]; Table 4, DC-3F, read-out: Cytotoxic Concentration IC50): 8.8 nM
- IC90 ([3]; Table 4, DC-3F): 53 nM
- IC50 ([3]; Table 13, DC-3F, read-out: Cytotoxic Concentration IC50): 4 nM
- IC90 ([3]; Table 13, DC-3F): 17 nM
- Cytotoxic Concentration IC95 ([3]; Table 4, DC-3F): 97.5 nM
- ratio of IC50 to EQI-6 (in parentheses) ([3]; Table 4, DC-3F, EQI-6 = (1)): 4.9 ×
- ratio of IC90 to EQI-6 (in parentheses) ([3]; Table 4, DC-3F, EQI-6 = (1)): 4.8 ×
- ratio of IC95 to EQI-6 (in parentheses) ([3]; Table 4, DC-3F, EQI-6 = (1)): 4.9 ×
- Cytotoxic Concentration IC95 ([3]; Table 13, DC-3F): 28 nM
- IC50 ([4]; Table 2, DC-3F/ADII (MDR/Actinomycin D), read-out: concentration required to inhibit cell growth by 50% (IC50)): 71 nM
- IC50 ([4]; Table 4, DC-3F/ADII, read-out: Cytotoxic Concentration IC50): 70.7 nM
- IC90 ([4]; Table 4, DC-3F/ADII): 825 nM
- IC50 ([4]; Table 13, DC-3F/ADII, read-out: Cytotoxic Concentration IC50): 33 nM
- IC90 ([4]; Table 13, DC-3F/ADII): 180 nM
- Cytotoxic Concentration IC95 ([4]; Table 4, DC-3F/ADII): 1902 nM
- ratio of IC50 to EQI-6 (in parentheses) [4, 10]: 12 ×
- ratio of IC90 to EQI-6 (in parentheses) [4, 10]: 53.6 ×
- ratio of IC95 to EQI-6 (in parentheses) [4, 10]: 88.9 ×
- Cytotoxic Concentration IC95 ([4]; Table 13, DC-3F/ADII): 321 nM
- IC50 ([5]; Homo sapiens, SK-BR-3, Table 2, SK-Br-3 (Breast), read-out: concentration required to inhibit cell growth by 50% (IC50)): 551 nM
- IC50 ([5]; Homo sapiens, SK-BR-3, Table 4, SK-Br-3, read-out: Cytotoxic Concentration IC50): 551 nM
- IC90 ([5]; Homo sapiens, SK-BR-3, Table 4, SK-Br-3, read-out: Cytotoxic Concentration IC90): 84100 nM
- Cytotoxic Concentration IC95 ([5]; Table 4, SK-Br-3): 464700 nM
- ratio of IC50 to EQI-6 (in parentheses) ([5]; Table 4, SK-Br-3, EQI-6 = (1)): 16.2 ×
- ratio of IC90 to EQI-6 (in parentheses) ([5]; Table 4, SK-Br-3, EQI-6 = (1)): 449.7 ×
- ratio of IC95 to EQI-6 (in parentheses) ([5]; Table 4, SK-Br-3, EQI-6 = (1)): 139.7 ×
- IC50 (MT2 cells; Homo sapiens, read-out: Cytotoxic Concentration IC50): 19 nM
- IC90 (MT2 cells; Homo sapiens, read-out: Cytotoxic Concentration IC90): 38 nM
- Cytotoxic Concentration IC95 (MT2 cells): 48 nM
- IC50 ([6]; Homo sapiens, 833K, Table 2, 833K (Testicular), read-out: concentration required to inhibit cell growth by 50% (IC50)): 43 nM
- IC50 ([6]; Homo sapiens, 833K, Table 4, 833k, read-out: Cytotoxic Concentration IC50): 43 nM
- IC90 ([6]; Homo sapiens, 833K, Table 4, 833k, read-out: Cytotoxic Concentration IC90): 189 nM
- Cytotoxic Concentration IC95 ([6]; Table 4, 833k): 311 nM
- ratio of IC50 to EQI-6 (in parentheses) ([6]; Table 4, 833k, EQI-6 = (1)): 6.14 ×
- ratio of IC90 to EQI-6 (in parentheses) ([6]; Table 4, 833k, EQI-6 = (1)): 7.56 ×
- ratio of IC95 to EQI-6 (in parentheses) ([6]; Table 4, 833k, EQI-6 = (1)): 7.97 ×

Compound: actinomycin D
- resistance of cell line to actinomycin D ([4]; DC3F/ADII versus DC3F): 32 fold

Compound: COc1cc([C@@H]2c3cc4c(cc3[C@@H](O[C@@H]3O[C@@H]5CO[C@@H](c6cccs6)O[C@H]5[C@H](O)[C@H]3O)[C@H]3COC(=O)[C@H]23)OCO4)cc(OC)c1O [VM26]
- resistance of cell line to VM26 (CCRF-CEM/VM-1 cells; CCRF/VM1 versus CCRF/CEM): 50 fold

Compound: CC[C@]1(O)C[C@@H]2CN(CCc3c([nH]c4ccccc34)[C@@](C(=O)OC)(c3cc4c(cc3OC)N(C)[C@H]3[C@@](O)(C(=O)OC)[C@H](OC(C)=O)[C@]5(CC)C=CCN6CC[C@]43[C@@H]65)C2)C1 [vinblastin]
- resistance of cell line to vinblastin (CCRF-CEM/VBL cells; CCRF/VBL100 versus CCRF/CEM): 59 fold
